Experimental data: US20250100995A1, “CEREBLON BINDING COMPOUNDS, COMPOSITIONS THEREOF, AND METHODS OF TREATMENT THEREWITH” (CELGENE CORPORATION, priority 2021, published 2025)
Structures can show the parent of a compound that is named as a salt.

Target: T1, AR (Homo sapiens, UniProt P10275)
T1 construct: endogenous in cells; host or cells: VCaP cells
T1 sequence (P10275 1-920): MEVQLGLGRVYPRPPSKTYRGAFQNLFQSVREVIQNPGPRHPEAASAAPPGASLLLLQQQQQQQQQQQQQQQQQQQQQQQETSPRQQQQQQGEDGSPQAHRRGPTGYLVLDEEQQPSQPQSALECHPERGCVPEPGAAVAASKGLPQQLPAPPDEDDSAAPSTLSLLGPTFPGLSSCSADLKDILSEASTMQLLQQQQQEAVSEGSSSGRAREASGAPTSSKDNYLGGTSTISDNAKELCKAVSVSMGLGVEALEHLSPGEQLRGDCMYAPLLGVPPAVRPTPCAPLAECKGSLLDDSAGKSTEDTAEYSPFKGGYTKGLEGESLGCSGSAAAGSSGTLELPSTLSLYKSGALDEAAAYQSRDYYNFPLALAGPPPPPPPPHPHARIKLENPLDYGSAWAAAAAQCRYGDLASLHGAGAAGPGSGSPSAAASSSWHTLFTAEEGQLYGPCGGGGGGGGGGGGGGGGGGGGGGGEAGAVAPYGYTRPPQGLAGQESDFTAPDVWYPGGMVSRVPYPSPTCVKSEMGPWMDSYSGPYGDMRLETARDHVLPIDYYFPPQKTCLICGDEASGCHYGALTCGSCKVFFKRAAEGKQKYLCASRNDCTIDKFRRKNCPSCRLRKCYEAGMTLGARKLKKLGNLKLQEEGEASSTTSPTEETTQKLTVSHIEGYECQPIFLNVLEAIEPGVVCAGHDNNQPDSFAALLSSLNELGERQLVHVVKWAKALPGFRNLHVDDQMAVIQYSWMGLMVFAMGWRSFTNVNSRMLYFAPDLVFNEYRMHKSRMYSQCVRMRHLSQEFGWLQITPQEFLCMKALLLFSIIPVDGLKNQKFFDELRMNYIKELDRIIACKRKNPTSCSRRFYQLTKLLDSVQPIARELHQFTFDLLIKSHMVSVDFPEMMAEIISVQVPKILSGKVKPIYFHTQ
Experiment: VCAP AR Degradation Assay
Type: cell-based
Details: VCaP cells, 24 h, AR ELISA; for DC50: concentration of compound when AR level = 50% of DMSO control; for Y: lowest measured AR level normalized to DMSO control (AR degradation efficiency)
Protocol: VCAP AR Degradation Assay. Test compounds were pre-dispensed into a Corning CellBind 96-well clear bottom plate (Cat #3300) using an acoustic dispenser to make a 10-point concentration series at 1:3 dilution for each compound. The final top concentration of each compound was 5 μM. DMSO at a final concentration of 0.1% was used as a control. VCaP cells cultured in DMEM with 8% fetal bovine serum (FBS) were seeded at 50K cells per well in a 200 μL volume into the compound plate and incubated at 37° C. in a CO2 incubator for 24 h. The medium was carefully removed from the cells and the plate was placed on ice. One hundred μL of ice-cold 1× cell lysis buffer from Cell Signaling Technologies (Cat #9803) was added to each well of the cells and the plate was incubated at 4° C. on a shaker for 1 h. Fifteen μL of cell lysate was used for AR ELISA detection using a PathScan Total Sandwich AR ELISA kit (Cell Signaling Technology, Cat #12580). AR levels in compound-treated wells were normalized to that of DMSO control and expressed as percent of control (PoC) (y). A Four Parameter Logistic Model (Sigmoidal Dose-Response Model) was used to determine the compound's DC50, and EC50, using the following equation: […]
The lowest measured AR level normalized to DMSO control in response to compound treatment, termed Y value, was used to characterize the compound-mediated AR degradation efficiency.

Row | Structure (SMILES) | DC50 | Y | Y (hydrochloride)
1 | C[C@@H]1CN(CCO[C@H]2CC[C@H](N3C(=S)N(c4ccc(C#N)c(C(F)(F)F)c4)C(=O)C3(C)C)CC2)C[C@H](C)N1CC(=O)Nc1ccc(C2(C)CCC(=O)NC2=O)cn1 (single isomer, unassigned) [Cmpd 5, hydrochloride] | > 200 nM | *** (40%<Y<80%) | 
2 | C[C@@H]1CN(CCO[C@H]2CC[C@H](N3C(=S)N(c4ccc(C#N)c(C(F)(F)F)c4)C(=O)C3(C)C)CC2)C[C@H](C)N1CC(=O)Nc1ccc(C2(C)CCC(=O)NC2=O)cn1 (single isomer, unassigned) [Cmpd 6, hydrochloride] | > 200 nM | *** (40%<Y<80%) | 
3 | C[C@@H]1CN(CCCO[C@H]2CC[C@H](N3C(=S)N(c4ccc(C#N)c(C(F)(F)F)c4)C(=O)C3(C)C)CC2)C[C@H](C)N1CC(=O)Nc1cc(N2CCC(=O)NC2=O)ccn1 (single isomer, unassigned) [Cmpd 7, hydrochloride] | > 200 nM | *** (40%<Y<80%) | 
4 | C[C@@H]1CN(CCO[C@H]2CC[C@H](N3C(=S)N(c4ccc(C#N)c(C(F)(F)F)c4)C(=O)C3(C)C)CC2)C[C@H](C)N1CC(=O)Nc1cc(C2(C)CCC(=O)NC2=O)ccn1 (single isomer, unassigned) [Cmpd 8, hydrochloride] | ≤ 5 nM |  | * (0<Y≤20%)
5 | C[C@@H]1CN(CCO[C@H]2CC[C@H](N3C(=S)N(c4ccc(C#N)c(C(F)(F)F)c4)C(=O)C3(C)C)CC2)C[C@H](C)N1CC(=O)Nc1cc(C2(C)CCC(=O)NC2=O)ccn1 (single isomer, unassigned) [Cmpd 9, hydrochloride] | ≤ 5 nM |  | ** (20%<Y≤40%)
6 | C[C@@H]1CN(CCO[C@H]2CC[C@H](N3C(=S)N(c4ccc(C#N)c(C(F)(F)F)c4)C(=O)C3(C)C)CC2)C[C@H](C)N1CC(=O)Nc1cc(C2CCC(=O)NC2=O)ccn1 (stereo partly drawn) [Cmpd 1, 2-((2R,6S)-4-(2-((trans-4-(3-(4-Cyano-3-(trifluoromethyl)phenyl)-5,5-dimethyl-4-oxo-2-thioxoimidazolidin-1-yl)cyclohexyl)oxy)ethyl)-2,6-dimethylpiperazin-1-yl)-N-(4-(2,6-dioxopiperidin-3-yl)pyridin-2-yl)acetamide hydrochloride] | 5 to 50 nM | ** (20%<Y≤40%) | 
7 | C[C@@H]1CN(CCO[C@H]2CC[C@H](N3C(=S)N(c4ccc(C#N)c(C(F)(F)F)c4)C(=O)C3(C)C)CC2)C[C@H](C)N1CC(=O)Nc1ccc(C2CCC(=O)NC2=O)cn1 (stereo partly drawn) [Cmpd 2, 2-((2R,6S)-4-(2-((trans-4-(3-(4-Cyano-3-(trifluoromethyl)phenyl)-5,5-dimethyl-4-oxo-2-thioxoimidazolidin-1-yl)cyclohexyl)oxy)ethyl)-2,6-dimethylpiperazin-1-yl)-N-(5-(2,6-dioxopiperidin-3-yl)pyridin-2-yl)acetamide hydrochloride] | 5 to 50 nM | ** (20%<Y≤40%) | 
8 | C[C@@H]1CN(CCO[C@H]2CC[C@H](N3C(=S)N(c4ccc(C#N)c(C(F)(F)F)c4)C(=O)C3(C)C)CC2)C[C@H](C)N1CC(=O)Nc1ccc(N2CCC(=O)NC2=O)cn1 [Cmpd 3, 2-((2R,6S)-4-(2-((trans-4-(3-(4-Cyano-3-(trifluoromethyl)phenyl)-5,5-dimethyl-4-oxo-2-thioxoimidazolidin-1-yl)cyclohexyl)oxy)ethyl)-2,6-dimethylpiperazin-1-yl)-N-(5-(2,4-dioxotetrahydropyrimidin-1(2H)-yl)pyridin-2-yl)acetamide hydrochloride] | > 200 nM | *** (40%<Y<80%) | 
9 | C[C@@H]1CN(CCO[C@H]2CC[C@H](N3C(=S)N(c4ccc(C#N)c(Cl)c4)C(=O)C3(C)C)CC2)C[C@H](C)N1CC(=O)Nc1cc(C2CCC(=O)NC2=O)ccn1 (stereo partly drawn) [Cmpd 4, 2-((2R,6S)-4-(2-((trans-4-(3-(3-Chloro-4-cyanophenyl)-5,5-dimethyl-4-oxo-2-thioxoimidazolidin-1-yl)cyclohexyl)oxy)ethyl)-2,6-dimethylpiperazin-1-yl)-N-(4-(2,6-dioxopiperidin-3-yl)pyridin-2-yl)acetamide hydrochloride] | 5 to 50 nM | ** (20%<Y≤40%) | 
10 | C[C@@H]1CN(CCCO[C@H]2CC[C@H](N3C(=S)N(c4ccc(C#N)c(C(F)(F)F)c4)C(=O)C3(C)C)CC2)C[C@H](C)N1CC(=O)Nc1ccc(C2CCC(=O)NC2=O)cn1 (stereo partly drawn) [Cmpd 10, 2-((2R,6S)-4-(3-((trans-4-(3-(4-Cyano-3-(trifluoromethyl)phenyl)-5,5-dimethyl-4-oxo-2-thioxoimidazolidin-1-yl)cyclohexyl)oxy)propyl)-2,6-dimethylpiperazin-1-yl)-N-(5-(2,6-dioxopiperidin-3-yl)pyridin-2-yl)acetamide hydrochloride] | > 200 nM | *** (40%<Y<80%) | 
11 | C[C@@H]1CN(CCO[C@H]2CC[C@H](N3C(=S)N(c4ccc(C#N)c(C(F)(F)F)c4)C(=O)C3(C)C)CC2)C[C@H](C)N1CCOc1ccc(N2CCC(=O)NC2=O)cn1 [Cmpd 11, 4-(3-(trans-4-(2-((3R,5S)-4-(2-((5-(2,4-Dioxotetrahydropyrimidin-1(2H)-yl)pyridin-2-yl)oxy)ethyl)-3,5-dimethylpiperazin-1-yl)ethoxy)cyclohexyl)-4,4-dimethyl-5-oxo-2-thioxoimidazolidin-1-yl)-2-(trifluoromethyl)benzonitrile hydrochloride] | > 200 nM | *** (40%<Y<80%) | 
12 | C[C@@H]1CN(CCO[C@H]2CC[C@H](N3C(=S)N(c4ccc(C#N)c(C(F)(F)F)c4)C(=O)C3(C)C)CC2)C[C@H](C)N1CCCOc1ccc(N2CCC(=O)NC2=O)cn1 [Cmpd 12, 4-(3-(trans-4-(2-((3R,5S)-4-(3-((5-(2,4-Dioxotetrahydropyrimidin-1(2H)-yl)pyridin-2-yl)oxy)propyl)-3,5-dimethylpiperazin-1-yl)ethoxy)cyclohexyl)-4,4-dimethyl-5-oxo-2-thioxoimidazolidin-1-yl)-2-(trifluoromethyl)benzonitrile hydrochloride] | > 200 nM | *** (40%<Y<80%) | 
13 | C[C@@H]1CN(CCCO[C@H]2CC[C@H](N3C(=S)N(c4ccc(C#N)c(C(F)(F)F)c4)C(=O)C3(C)C)CC2)C[C@H](C)N1CC(=O)Nc1cc(C2CCC(=O)NC2=O)ccn1 (stereo partly drawn) [Cmpd 13, 2-((2R,6S)-4-(3-((trans-4-(3-(4-Cyano-3-(trifluoromethyl)phenyl)-5,5-dimethyl-4-oxo-2-thioxoimidazolidin-1-yl)cyclohexyl)oxy)propyl)-2,6-dimethylpiperazin-1-yl)-N-(4-(2,6-dioxopiperidin-3-yl)pyridin-2-yl)acetamide hydrochloride] | ≤ 5 nM | *** (40%<Y<80%) | 
14 | C[C@@H]1CN(CCCC[C@H]2CC[C@H](N3C(=S)N(c4ccc(C#N)c(C(F)(F)F)c4)C(=O)C3(C)C)CC2)C[C@H](C)N1CC(=O)Nc1cc(C2CCC(=O)NC2=O)ccn1 (stereo partly drawn) [Cmpd 14, 2-((2R,6S)-4-(4-(trans-4-(3-(4-Cyano-3-(trifluoromethyl)phenyl)-5,5-dimethyl-4-oxo-2-thioxoimidazolidin-1-yl)cyclohexyl)butyl)-2,6-dimethylpiperazin-1-yl)-N-(4-(2,6-dioxopiperidin-3-yl)pyridin-2-yl)acetamide hydrochloride] | 5 to 50 nM | * (0<Y≤20%) | 
15 | C[C@@H]1CN(CCO[C@H]2CC[C@H](N3C(=S)N(c4ccc(C#N)c(C(F)(F)F)c4)C(=O)C3(C)C)CC2)C[C@H](C)N1CCOc1cc(C2CCC(=O)NC2=O)ccn1 (stereo partly drawn) [Cmpd 15, 4-(3-(trans-4-(2-((3R,5S)-4-(2-((4-(2,6-Dioxopiperidin-3-yl)pyridin-2-yl)oxy)ethyl)-3,5-dimethylpiperazin-1-yl)ethoxy)cyclohexyl)-4,4-dimethyl-5-oxo-2-thioxoimidazolidin-1-yl)-2-(trifluoromethyl)benzonitrile hydrochloride] | 5 to 50 nM | *** (40%<Y<80%) | 
